From the NIST ThermoML archive (doi:10.1021/je034290l)
Numbers after ± are expanded uncertainties.

Key:
[1] = xn = mol fraction of the nth substance listed; settings: 101.32 kPa, Liquid
[2] = excess molar enthalpy (molar enthalpy of mixing); xn = mol fraction of the nth substance listed; settings: 101.32 kPa, Liquid, Calvet calorimetry

COC(C)=O [methyl ethanoate] + CC(C)(C)O
Settings	excess molar enthalpy [kcal/mol]	excess molar volume [m3/mol]
[1], 303.15 K, x1 = 0.0451	–	1.65e-07 ± 1.6e-08
[1], 303.15 K, x1 = 0.0901	–	3.35e-07 ± 1.7e-08
[1], 303.15 K, x1 = 0.1537	–	5.06e-07 ± 1.8e-08
[1], 303.15 K, x1 = 0.1973	–	6.07e-07 ± 1.8e-08
[1], 303.15 K, x1 = 0.2481	–	7.02e-07 ± 1.9e-08
[1], 303.15 K, x1 = 0.2631	–	7.32e-07 ± 1.9e-08
[1], 303.15 K, x1 = 0.3042	–	8.09e-07 ± 1.9e-08
[1], 303.15 K, x1 = 0.3448	–	8.49e-07 ± 1.9e-08
[1], 303.15 K, x1 = 0.3957	–	8.87e-07 ± 2e-08
[1], 303.15 K, x1 = 0.4411	–	9.04e-07 ± 2e-08
[1], 303.15 K, x1 = 0.4445	–	8.99e-07 ± 2e-08
[1], 303.15 K, x1 = 0.4964	–	8.92e-07 ± 2e-08
[1], 303.15 K, x1 = 0.5515	–	8.74e-07 ± 2e-08
[1], 303.15 K, x1 = 0.5677	–	8.68e-07 ± 2e-08
[1], 303.15 K, x1 = 0.5954	–	8.5e-07 ± 1.9e-08
[1], 303.15 K, x1 = 0.6467	–	7.94e-07 ± 1.9e-08
[1], 303.15 K, x1 = 0.6956	–	7.42e-07 ± 1.9e-08
[1], 303.15 K, x1 = 0.7432	–	6.59e-07 ± 1.9e-08
[1], 303.15 K, x1 = 0.8016	–	5.54e-07 ± 1.8e-08
[1], 303.15 K, x1 = 0.8477	–	4.63e-07 ± 1.8e-08
[1], 303.15 K, x1 = 0.9067	–	3.28e-07 ± 1.7e-08
[1], 303.15 K, x1 = 0.9465	–	2.17e-07 ± 1.7e-08
[1], 318.15 K, x1 = 0.102	–	3.93e-07 ± 1.7e-08
[1], 318.15 K, x1 = 0.165	–	5.61e-07 ± 1.8e-08
[1], 318.15 K, x1 = 0.2168	–	6.84e-07 ± 1.9e-08
[1], 318.15 K, x1 = 0.2804	–	7.71e-07 ± 1.9e-08
[1], 318.15 K, x1 = 0.349	–	8.76e-07 ± 2e-08
[1], 318.15 K, x1 = 0.4031	–	9.16e-07 ± 2e-08
[1], 318.15 K, x1 = 0.4596	–	9.41e-07 ± 2e-08
[1], 318.15 K, x1 = 0.5227	–	9.15e-07 ± 2e-08
[1], 318.15 K, x1 = 0.5784	–	8.91e-07 ± 2e-08
[1], 318.15 K, x1 = 0.6398	–	8.5e-07 ± 1.9e-08
[1], 318.15 K, x1 = 0.6786	–	8.06e-07 ± 1.9e-08
[1], 318.15 K, x1 = 0.7422	–	7.18e-07 ± 1.9e-08
[1], 318.15 K, x1 = 0.7969	–	5.7e-07 ± 1.8e-08
[1], 318.15 K, x1 = 0.8256	–	5.31e-07 ± 1.8e-08
[1], 318.15 K, x1 = 0.9077	–	3.01e-07 ± 1.7e-08
[1], 318.15 K, x1 = 0.9496	–	1.86e-07 ± 1.6e-08
[2], 299.15 K, x1 = 0.0671	0.126 ± 0.00167	–
[2], 299.15 K, x1 = 0.1369	0.238 ± 0.00311	–
[2], 299.15 K, x1 = 0.2113	0.341 ± 0.0043	–
[2], 299.15 K, x1 = 0.2812	0.417 ± 0.00526	–
[2], 299.15 K, x1 = 0.3492	0.472 ± 0.00598	–
[2], 299.15 K, x1 = 0.4106	0.504 ± 0.00621	–
[2], 299.15 K, x1 = 0.4675	0.519 ± 0.00645	–
[2], 299.15 K, x1 = 0.4928	0.522 ± 0.00645	–
[2], 299.15 K, x1 = 0.5304	0.524 ± 0.00645	–
[2], 299.15 K, x1 = 0.5753	0.517 ± 0.00645	–
[2], 299.15 K, x1 = 0.6226	0.5 ± 0.00621	–
[2], 299.15 K, x1 = 0.6741	0.47 ± 0.00598	–
[2], 299.15 K, x1 = 0.7293	0.427 ± 0.00526	–
[2], 299.15 K, x1 = 0.7866	0.368 ± 0.00454	–
[2], 299.15 K, x1 = 0.8439	0.292 ± 0.00359	–
[2], 299.15 K, x1 = 0.9019	0.201 ± 0.00263	–
[2], 299.15 K, x1 = 0.9551	0.107 ± 0.00141	–
[2], 318.15 K, x1 = 0.071	0.113 ± 0.00151	–
[2], 318.15 K, x1 = 0.1469	0.216 ± 0.00263	–
[2], 318.15 K, x1 = 0.2304	0.311 ± 0.00382	–
[2], 318.15 K, x1 = 0.3022	0.382 ± 0.00478	–
[2], 318.15 K, x1 = 0.3713	0.434 ± 0.0055	–
[2], 318.15 K, x1 = 0.4322	0.471 ± 0.00598	–
[2], 318.15 K, x1 = 0.4898	0.49 ± 0.00598	–
[2], 318.15 K, x1 = 0.5407	0.492 ± 0.00621	–
[2], 318.15 K, x1 = 0.5865	0.485 ± 0.00598	–
[2], 318.15 K, x1 = 0.6105	0.475 ± 0.00598	–
[2], 318.15 K, x1 = 0.6585	0.451 ± 0.00574	–
[2], 318.15 K, x1 = 0.711	0.414 ± 0.00526	–
[2], 318.15 K, x1 = 0.7628	0.367 ± 0.00454	–
[2], 318.15 K, x1 = 0.817	0.308 ± 0.00382	–
[2], 318.15 K, x1 = 0.8636	0.242 ± 0.00311	–
[2], 318.15 K, x1 = 0.9085	0.174 ± 0.00237	–
[2], 318.15 K, x1 = 0.9567	0.0889 ± 0.00148	–
